The text below walks through data of patent US9694010B2, “Therapeutic formulation and methods of treatment” (MacuCLEAR, Inc., priority 2012, dated 2017).

Counter-ions that a name gives are not always drawn. Like-named read-outs stand apart in the source and are kept apart here.

Data set [1] has as its system ARPE-19 cells. The experiment in a line: tBHP-induced toxicity, MTT assay. The settings on record: 24 hours; for cell viability (maximum protection): 100 μg/mL of hydralazine, P<0.001. How it is done:
(§1) The human RPE cell line ARPE-19 (ATCC; Manassas, Va.) was cultured in Dulbecco's Modified Essential Medium (DMEM) supplemented with 10% fetal bovine serum, 50 units/mL penicillin-streptomycin and 2.5 mM glutamine at 37° incubation with 5% CO2. The cell line was not transformed and had structure and function properties characteristic of RPE in vivo. The cells were seeded into 96-well plates, and subconfluent cell monolayers were studied within 3 to 10 passages. Before starting the experimental procedures, the medium was removed and replaced with phenol red-free low-glucose DMEM supplemented with 1% calf serum, 0.06% glutamine, and 1% penicillin-streptomycin.
(§2) The cells were used for experiments when they reached 80% confluence to prevent contact inhibition.
(§3) After the 24-hour exposure, the MTT reagent solution (5 mg/mL) was added to each well in a ratio of 1:10 MTT reagent:culture medium volume. The cultures were incubated with the MTT reagent for 3 hours at 37° C. At the end of incubation, the MTT solution was removed, and 0.1 mL of dimethyl sulfoxide (DMSO) was added to each well to solubilize the purple formazan product. The proportion of viable cells was determined by measuring the optical density (OD) of each sample at 570 nm (A570) using a SpectraCount plate reader (Packard BioScience, Meridan, Conn.). The relationship between the OD readings in the MTT colorimetric assay and the exact cell number was determined by seeding cells at identical densities and then performing the MTT assay and manual hemocytometer cell counts on parallel replicate cultures. Trypan blue was added to the hemocytometer cultures so that only viable, dye-excluding cells were counted. This approach enabled the establishment of a standard curve for A570 versus cell number.
(§4) All data were presented as mean±standard error. A nonpaired Student t test was performed to analyze the significance between 2 means at a certain time point. The differences were considered significant at P<0.05. Results for nitric oxide measurements were expressed in μM nitrite and nitrate per 1×10^6 cells.
A general note: Tetrazolium assays rely on reduction of a dye to a coloured formazan, in cell work by metabolically active cells.

How the values of data set [2] were obtained: Choroidal blood flow, velocity and volume were assessed following the first dosing of test material on each day. […] Measurements were made using a Laser Doppler Flowmetry device, which is a state-of-the-art, non-invasive and quantitative approach for visualizing and measuring subfoveal choroidal blood flow.
There was a trend of increased mean choroidal blood volume and velocity values in hydralazine hydrochloride-treated eyes, which peaked approximately 2 hours after topical ocular dosing on day 1 and returned to baseline values approximately 4 hours after dosing (i.e., 2 hours later). […] By contrast, in normal/healthy subjects both mean values and associated standard deviations (SDs) remained low at all time points on day 1. • Odds ratio analyses of the choroidal blood flow outcomes between the AMD and Normal groups for day 1 were evaluated.

A further data set deals with rabbit eye. The experiment in a line: 28-day repeat dose ocular toxicity. Type of data set: in vivo, Dutch Belted rabbits. The protocol:
Hydralazine hydrochloride ophthalmic solutions were prepared essentially as described in Example 1 at concentrations of 0.0% (vehicle), 0.5% hydralazine hydrochloride, 1.0% hydralazine hydrochloride, and 2.0% hydralazine hydrochloride. The formulation, vehicle or control was administered daily for 28 days to the designated eye of forty Dutch Belted rabbits (5 males and 5 females per group) as shown in Table 2. […]
A modified Hackett and McDonald microscopic ocular grading system (Hackett 1996) was applied to ocular findings following the use of a slit-lamp biomicroscope, which included insertion of a blue filter to assess for fluorescein dye retention. For any evaluated microscopic ocular examination parameter, there were no statistically significant differences, in either male or female rabbits, between Group 1 and Groups 2-4 during the pre dose or Day 29 study measurement periods.
Mean tonometry (Tono-pen; Reichert Ophthalmic Instruments, Depew, N.Y.) readings of IOP in control and test rabbits pre-dose and on Day 29 were between 15-25 mmHg, which is within the normal physiologic range. […]

The conditions of data set [3]: 25° C., pH 3.5, cationic form; obtained by extrapolation. The source says: In one embodiment, the hydralazine for use in the formulation is a hydralazine salt such as hydralazine hydrochloride.
For data set [4] the following is noted: all subjects.
Description: Subjects in the dry AMD group had evidence of small and intermediate drusen, minimal or no pigment abnormalities in the macula (i.e., risk factor 2 on the AREDS Simplified Grading Scale), and a Snellen equivalent best corrected visual acuity (BCVA) equal to or better than 20/100.
The patients received 1 drop of test material in one eye and vehicle control in the contra-lateral eye. The patients administered the first dose of each day in the clinical setting and self-administered the remaining two doses of the day at prescribed time points.
On days 2 and 3, the evaluations were after the first two time-points. The 7th dose was administered in the morning on day 3. Seven days after the final dose, patients were contacted via telephone to evaluate any post study adverse events or issues.
Data set [5] deals with Human Umbilical Vein Endothelial Cells (HUVEC). The data set is described as follows: In vitro tube formation. Particulars: 100 μg/ml, 48 hours.
Data set [6] relates to ARPE-19 cells. The settings on record: NaN3 0.1-100 mM, hydralazine 1, 3, 10, 30, 100 μg/mL.
Protocol: RPE cells were washed and replaced with fresh DMEM-F12 medium containing various concentrations of NaN3 (0.1 mM-100 mM). […] Reactions were stopped by washing out the medium.
For data set [7] the following is noted: cited from earlier work; for systemic bioavailability: gastrointestinal absorption.
Data set [8] has as its system ARPE-19 cells. Particulars: 24 hours; for cell viability (maximum protection): P<0.001. How it is done: as §1, §2, §3, §4
For data set [9], the system named is ARPE-19 cells. The settings on record: 1% O2, 1 μg/mL of hydralazine, P<0.001. How it is done:
In vitro hypoxia treatment was carried out using a ProOx hypoxia system. […] In hypoxia, oxygen concentrations of 1% O2 and 5% CO2 were maintained using a temperature- and humidity-controlled environmental C-chamber by O2 and CO2 controllers (ProOx Model 110 and ProCO2 Model 120; BioSpherix Ltd., Redfield, N.Y.) with N2 and CO2 gas sources. Reactions were stopped by washing out the medium, and 5 mg/mL MTT at a dilution of 1:10 based on the volume of culture medium was added for 3 hours at 37° C. At the end of incubation, the MTT solution was removed, and the cells were dissolved in 0.1 mL/well DMSO. The proportion viable cells were determined by measuring the OD of each sample at 570 nm using a SpectraCount plate reader (Packard BioScience, Meridan, Conn.).

For `CC(C)(C)OO` [tBHP, Tert-Butyl hydroperoxide], the cell viability in the data set with ARPE-19 cells [1] (0.01 mM tBHP alone) was 89.90%±2.80%; in the data set on ARPE-19 cells [1] (0.03 mM tBHP alone), 55.80%±4.08%.
With `NNc1nncc2ccccc12` [hydralazine hydrochloride, Hydralazine hydrochloride], the “odds ratio, choroidal blood volume outcome, AMD vs Normal group” value in [2] (day 1, 60 minute time point (p=0.337)) came out at 0.22; in data set [2] (day 1, 120 minute time point (p=0.106)) it was 6.67. Besides, in data set [2] (day 1, after topical ocular dosing, back to baseline approximately 4 hours after dosing), the “time of peak of mean choroidal blood volume and velocity” value is recorded as “approximately 2 hours”. Besides, the “choroidal blood flow, mean scores” value in data set [2] (treated eyes in AMD subjects) is given as “trend towards improved mean scores”. Also, the dose-related toxicologic changes result in the data set on rabbit eye (28 days of daily topical ocular treatment, 0.5-2.0%, 40 μL) is “did not result in the development of significant doserelated toxicologic changes”. For the same molecule, in the data set on rabbit eye (daily application of up to 2.0% for 28 days), the ocular histopathology result was “did not result in the development of ocular pathology, inflammation, degeneration, or histologic evidence of toxicity”. Also, the “rate constant (time with less than a 10% loss)” value in data set [3] is given as 1.5 years. In data set [4] (range 1 to 4 days), the “average time to resolution of ocular hyperemia” value was determined as 1.85 days. Further, the “ocular hyperemia, treated eyes” value in data set [4] (hydralazine hydrochloride-treated eyes, 1 vehicle-treated eye) was found to be 21 eyes.
Turning to `NNc1nncc2ccccc12` [hydralazine], the “effect on HUVEC” value in data set [5] was “caused apoptosis”. The “effect on NaN3 chemically-induced hypoxia (viable cells)” value in the data set on ARPE-19 cells [6] is reported as “no significant effect”. Besides, in data set [7] (exceeds hepatic blood flow), the systemic clearance was 50 mL/min/kg. Besides, the systemic bioavailability is recorded as 16% in data set [7] (fast acetylators) and 35% in data set [7] (slow acetylators). Further, the plasma half-life in [7] (in vivo) was 3 to 7 h. In [7] (orally administered), the “time of peak concentration in plasma and maximal hypotensive effect” value was 30 to 120 min. Moreover, the “cell viability (maximum protection)” value with ARPE-19 cells [8] (insult 0.3 mM H2O2 (second statement), 30 μg/mL of hydralazine) is 68.04%±0.67%; in the data set on ARPE-19 cells [8] (insult 0.3 mM H2O2, 30 μg/mL of hydralazine) it was 74.30% ±0.80%; in the data set with ARPE-19 cells [1] (insult 0.01 mM tBHP) it was 109.99%±2.41%; in the data set on ARPE-19 cells [1] (insult 0.03 mM tBHP) it was 100.84%±13.00%. Also, the “cell viability (maximum reversion)” value in the data set with ARPE-19 cells [9] (48 hours) is given as 101.21%±0.54%; with ARPE-19 cells [9] (72 hours) it was 103.55%±1.75%.
Take `OO` [Formulation H2O2, hydrogen peroxide]: the cell viability in the data set on ARPE-19 cells [8] (0.3 mM H2O2 alone) is 48.74%±2.40%; in the data set with ARPE-19 cells [8] (1.0 mM H2O2 alone) it was 41.28%±0.80%.
